From patent US20240271071A1, “METHOD AND APPARATUS FOR FORMING A MICROFLUIDIC GEL STRUCTURE” (Mimetas B.V., priority 2021, published 2024)

Tested on: HCAEC and HCASMC co-culture
Test: Visualising contractile lumen (vasodilation/vasoconstriction) in coronary artery tubule model
Format: cell-based, Human
Conditions: Sildenafil at day 6, 5 μM, 50 μM and 500 μM, after Norepinephrine at day 3; phase contrast images, 30 minutes post-exposure
Method: For this example, a 3-lane OrganoPlate® ([…]) with 400 μm wide lanes was used, which comprises a microfluidic network of 3 lanes and two capillary pressure barriers. The network was filled with 50 μL HBSS in the observation window (the point where the 3 lanes converge) to provide additional humidity to the plate. The central lane was filled at the inlet with a neutralised bovine type I atelocollagen solution PureCol® EZ Gel 5 mg/ml (Advanced BioMatrix); the solution was pinned at the capillary pressure barrier leaving a free-standing meniscus at the air-liquid interface in the upper and lower lane. A 30 μL solution of HBSS was introduced into the inlet of the centre lane, and a 1 μL solution of 5% FBS in PBS was introduced at the hole of the outlet of the centre lane forming a dome shape as in Example 1. […] After 1 minute 50 μL of HBSS was added to the outlet and the OrganoPlate was placed in a humidity-controlled environment at 37° C. and 5% CO2 for 1 hour. For cell seeding, 1 μL of a cell suspension containing 10,000 cell/μL Primary Human Coronary Artery Endothelial Cells (HCAEC) and 2,500 cell/μL Primary Human Coronary Artery Smooth Muscle Cells (HCASMC) was seeded in the outlet of the middle lane. The cell suspension was driven into the microfluidic network by means of Laplace pressure due to the surface tension of the cell pellet. Cells were left to attach for between 2-6 hours. […]

## CCCc1nn(C)c2c(=O)[nH]c(-c3cc(S(=O)(=O)N4CCN(C)CC4)ccc3OCC)nc12 [Sildenafil]
  contraction of the tubule / change of lumen diameter upon exposure to a stimulus: contraction
